Data taken from patent publication US20240393340A1, “PROGNOSIS AND PREDICTIVE BIOMARKERS AND BIOLOGICAL APPLICATIONS THEREOF” (INSTITUT GUSTAVE ROUSSY, priority 2013, published 2024).
Like-named read-outs stand apart in the source and are kept apart here.

Legend:
[1] = tested on: A2058; experiment: Short-term growth-inhibition assay (Example 1); type: cell-based; conditions: A2058; short-term and long-term proliferation assays, Example 1
Experimental: (§1) FIGS. 1A-1B: Short-term growth-inhibition assay of a panel of melanoma cell lines including BRAF (V600E) cell lines and an NRAS (Q61R) mutated cell line. FIG. 1A. Cells were treated with increasing concentrations of N-[3-[(5-Chloro-1H-pyrrolo[2,3-b]pyridin-3-yl)carbonyl]-2,4-difluorophenyl]-1-propanesulfonamide (PLX-4720) for 72 h and cell viability was determined using CellTiter-Blue by measuring the absorbance at 540 nm in a microplate reader. Error bars show data +standard error. Means were derived from four replicates (n=4). FIG. 1B. Long-term colony formation assay of the indicated cells. Cells were grown in the absence or presence of PLX-4720 at the indicated concentrations for 15-20 days. For each cell line, all dishes were fixed at the same time, stained and photographed. […]
(§2) The inventors quantified the effect of exposing these cell lines to PLX-4720 on the half-maximum inhibitory concentration (IC50) (Table 1).

[2] = tested on: Mel624; experiment: Short-term growth-inhibition assay (Example 1); type: cell-based; conditions: Mel624; short-term and long-term proliferation assays, Example 1
Experimental: as §1, §2

[3] = tested on: A375; experiment: WST-1 cell proliferation assay (Example 2); type: cell-based
Experimental: (§3) Cell viability was determined using the WST-1 cell proliferation assay. Data are means±s.d. (n=3). FIG. 7B: Long-term colony formation assay of the indicated cell lines. Cells were grown in the absence or presence of vemurafenib at the indicated concentrations for two weeks. For each cell line, all dishes were fixed at the same time, stained and photographed.
(§4) Cell proliferation was measured using a WST-1 reagent (Roche Applied Science, IN, USA). Melanoma cells were plated (5000 cells per well) in 96-well tissue culture plates. After 24 h, the cells were treated with drugs or DMSO at the indicated concentrations, in triplicates. WST-1 reagent was added to the wells and incubated at 37° C. for 2 h before and after the treatment period of 48 h. […] Cell proliferation is expressed as percent of the absorbance compared to mock-treated cells.

[4] = tested on: Mel10; experiment: WST-1 cell proliferation assay (Example 2); type: cell-based
Experimental: as §3, §4

[5] = tested on: Mel888; experiment: WST-1 cell proliferation assay (Example 2); type: cell-based
Experimental: as §3, §4

[6] = tested on: SKMEL 28; experiment: WST-1 cell proliferation assay (Example 2); type: cell-based
Experimental: as §3, §4

[7] = tested on: A2058; experiment: WST-1 cell proliferation assay (Example 2); type: cell-based; conditions: for IC50: A2058, 48 h; for sensitivity of the cell line compared to other cell lines (e.g. A375, Mel888): A2058, short-term and long-term proliferation assays, Example 2
Experimental: as §3
(§5) Cell viability was determined using the WST-1 cell proliferation assay. Data are means±s.d. (n=4). […] The upper left region of the figure represents increasing degrees of synergy. The minimum and maximum Bliss index values were shown as an interval within square brackets under each isobologram. The Bliss index was calculated as the ratio Observed/Expected where an index=1, […] and >1 indicates additive, antagonistic and synergistic effects, respectively.
as §4
(§6) For clonogenic assays, cells were plated at low density (1×10^3 cells per well in a 6-well tissue culture plates) in fresh media. After 24 h, cells were treated with drugs or DMSO at the indicated concentrations, in duplicates. After 14 days cells were stained with 0.5% (w/v) crystal violet in 70% ethanol and the number of colonies was counted.

[8] = tested on: Mel624; experiment: WST-1 cell proliferation assay (Example 2); type: cell-based; conditions: for sensitivity of the cell line compared to other cell lines (e.g. A375, Mel888): Mel624, short-term and long-term proliferation assays, Example 2
Experimental: as §3, §5, §4, §6

[9] = tested on: melanoma; conditions: patients, cited from earlier work
[10] = Homo sapiens, A-375, A375, 48 h, read-out: IC50
[11] = Homo sapiens, SK-MEL-28, SKMEL 28, 48 h, read-out: IC50

SMILES	IC50 ([3]; A375, 48 h, read-out: IC50)	IC50 ([6]; SKMEL 28, 48 h, read-out: IC50)	IC50 ([4]; MEL10, 48 h, read-out: IC50)	IC50 ([5]; Mel888, 48 h, read-out: IC50)	IC50 ([7]; read-out: IC50)	sensitivity of the cell line compared to other cell lines (e.g. A375, Mel888) [7]	IC50 ([8]; Mel624, 48 h, read-out: IC50)	sensitivity of the cell line compared to other cell lines (e.g. A375, Mel888) [8]	IC50 [3, 10]	IC50 [6, 11]	IC50 ([7]; Homo sapiens, read-out: IC50)	further results
O=C(NOC[C@H](O)CO)c1ccc(F)c(F)c1Nc1ccc(I)cc1F [PD 0325901]			3 nM	2 nM		less sensitive	96 nM	less sensitive	10 nM	9 nM	33 nM	
COC(=O)[C@H]1[C@@H](O)[C@@]2(O)c3c(OC)cc(O[C@@H]4O[C@@H]([C@H](O)CO)CO[C@H]4OC)cc3O[C@@]2(c2ccc(OC)cc2)[C@@H]1c1ccccc1 [Silvestrol]												IC50 ([3]; Homo sapiens, A-375, 48 h): 21 nM; IC50 ([4]; 48 h): 46 nM; IC50 ([5]; 48 h): 17 nM; IC50 ([6]; Homo sapiens, SK-MEL-28, 48 h): 3 nM; IC50 ([7]; Homo sapiens): 2 nM; IC50 ([8]; 48 h): 4 nM
CCCS(=O)(=O)Nc1ccc(F)c(C(=O)c2c[nH]c3ncc(-c4ccc(Cl)cc4)cc23)c1F [Vemurafenib]			> 10000 nM	100 nM			2000 nM		400 nM	400 nM	2400 nM	
CC(C)(C)c1nc(-c2cccc(NS(=O)(=O)c3c(F)cccc3F)c2F)c(-c2ccnc(N)n2)s1 [dabrafenib]												response rate (objective responses) [9]: 50%; progression-free survival ([9]; compared with chemotherapy): 5.1 months; progression-free survival hazard ratio ([9]; versus chemotherapy): 0.30

Continued, in another order:

IC50 ([3]; A375, 48 h, read-out: IC50)	IC50 ([6]; SKMEL 28, 48 h, read-out: IC50)	SMILES	IC50 ([4]; MEL10, 48 h, read-out: IC50)	IC50 ([5]; Mel888, 48 h, read-out: IC50)	IC50 ([7]; read-out: IC50)	sensitivity of the cell line compared to other cell lines (e.g. A375, Mel888) [7]	IC50 ([8]; Mel624, 48 h, read-out: IC50)	sensitivity of the cell line compared to other cell lines (e.g. A375, Mel888) [8]	IC50 [3, 10]	IC50 [6, 11]	IC50 ([7]; Homo sapiens, read-out: IC50)	further results
> 100000 nM	> 100000 nM	O=C(O)C(Cc1ccccc1[N+](=O)[O-])=NNc1nc(-c2ccc(Cl)c(Cl)c2)cs1 (mixture of isomers) [4EGi-1]	> 100000 nM	77000 nM	50000 nM	more sensitive	26000 nM	more sensitive				sensitivity of the cell line compared to the other BRAF (V600E)-mutated melanoma cell lines [1]: more sensitive; sensitivity of the cell line compared to the other BRAF (V600E)-mutated melanoma cell lines [2]: more sensitive
35000 nM	60000 nM	Nc1ncnc2n[nH]c(Nc3ccc(F)cc3)c12 [CGP 57380]	28000 nM	25000 nM	> 100000 nM	less sensitive	> 100000 nM	less sensitive				
